Read-outs that look alike come from different tables or passages of the source.
What was measured:
[1] = system: human monocytic cell line U937; assay: Human U937 cellular necroptosis assay (TNFalpha + z-VAD-FMK, Cell Titer-Glo viability); assay type: cell-based; settings: U937 cells, 25 ng/mL human TNFalpha + 25 μM z-VAD-FMK, read-out: hU937 Avg IC50
Outline: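 Readout is CellTiter-Glo 2.0 luminescence after 22 h at 37° C with compound, in cells triggered by human TNFalpha (25 ng/mL) and z-VAD-FMK (25 μM) in phenol red-free RPMI/10% FBS. Values are run-averaged IC50s from a four-parameter logistic curve.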

[2] = target: RIPK1 (Homo sapiens (Human), UniProt Q13546); assay: ADP-Glo kinase assay (RIPK1 activity, conversion of ATP to ADP); assay type: biochemical; settings: for IC50: 5 nM RIPK1, 50 μM ATP, 6 h reaction, read-out: RIPK1 Enzyme Avg IC50
RIPK1, sequence (Q13546 1-327): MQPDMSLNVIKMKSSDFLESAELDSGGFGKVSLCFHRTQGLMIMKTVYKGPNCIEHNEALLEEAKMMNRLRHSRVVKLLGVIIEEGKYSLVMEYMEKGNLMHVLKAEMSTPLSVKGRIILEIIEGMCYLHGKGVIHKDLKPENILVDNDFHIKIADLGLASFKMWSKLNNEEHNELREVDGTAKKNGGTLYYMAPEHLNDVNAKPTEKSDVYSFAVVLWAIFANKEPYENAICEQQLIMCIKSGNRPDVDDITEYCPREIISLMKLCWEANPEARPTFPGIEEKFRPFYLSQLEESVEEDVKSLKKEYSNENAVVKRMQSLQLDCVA
Outline: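 RIPK1 (5 nM final) was preincubated 10 min at rt with 1:3-diluted compounds in HEPES pH 7.5/MgCl2/DTT/BSA/CHAPS buffer. ATP (50 μM final) was then added for 6 h, and ADP formed was read by ADP-Glo luminescence. IC50 values came from four-parameter logistic fitting.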

IC50 [2] | observed potency relative to the other enantiomer ([2]; enantiomers separated by SFC, assay not named) | SMILES | IC50 ([1]; Homo sapiens, U-937, 22 h) | IC50 ([1]; 22 h)
103 nM |  | N#Cc1ncn(CC23CC(C(=O)N4N=CCC4c4cc(F)cc(F)c4)(C2)C3)n1 (stereo not drawn) [Example 178, 1-((3-(5-(3,5-difluorophenyl)-4.5-dihydro-1H-pyrazole-1-carbonyl)bicyclo[1.1.1]-pentan-1-yl)methyl)-1H-1,2,4-triazole-3-carbonitrile] | 228 nM | 
11 nM |  | O=C(N1N=CCC1c1cc(F)cc(F)c1)C12CC(Cn3ncc4ncccc43)(C1)C2 (stereo not drawn) [Example 65, (3-((1H-pyrazolo[4,3-b]-pyridin-1-yl)methyl)bicyclo-[1.1.1]pentan-1-yl)(5-(3,5-difluorophenyl)-4,5-dihydro-1H-pyrazol-1-yl)methanone] |  | 44 nM
223 nM |  | N#Cc1ccc2c(cnn2CC23CC(C(=O)N4CCC4c4ccc(Cl)cc4)(C2)C3)c1 (stereo not drawn) [Example 233, 1-((3-(2-(4-chlorophenyl)-azetidine-1-carbonyl)bicyclo-[1.1.1]pentan-1-yl)methyl)-1H-indazole-5-carbonitrile] | 1190 nM | 
24 nM |  | Cc1ccccc1OCC12CC(C(=O)N3N=CCC3c3cc(F)cc(F)c3)(C1)C2 (stereo not drawn) [Example 337, (5-(3,5-difluorophenyl)-4,5-dihydro-1H-pyrazol-1-yl)(3-((o-tolyloxy)methyl)bicyclo-[1.1.1]pentan-1-yl)methanone] | 140 nM | 
25 nM |  | N#Cc1cnc2cnn(CC34CC(C(=O)N5N=CCC5c5cc(F)cc(F)c5)(C3)C4)c2c1 (stereo not drawn) [Example 218, 1-((3-(5-(3,5-difluorophenyl)-4,5-dihydro-1H-pyrazole-1-carbonyl)bicyclo[1.1.1]pentan-1-yl)methyl)-1H-pyrazolo[4,3-b]pyridine-6-carbonitrile] | 113 nM | 
14 nM |  | O=C(N1CC(F)CC1c1cccc(F)c1)C12CC(Cn3ncc4cc(F)ccc43)(C1)C2 (stereo not drawn) [Example 27, (3-((5-Fluoro-1H-indazol-1-yl)methyl)bicyclo[1.1.1]pentan-1-yl)(4-fluoro-2-(3-fluorophenyl)pyrrolidin-1-yl)methanone] | 167 nM | 
43 nM |  | N#Cc1ccc2c(cnn2CC23CC(C(=O)N4CCC4c4cccc(F)c4)(C2)C3)c1 (stereo not drawn) [Example 252, 1-((3-(2-(3-fluorophenyl)-azetidine-1-carbonyl)bicyclo-[1.1.1]pentan-1-yl)methyl)-1H-indazole-5-carbonitrile] | 436 nM | 
156 nM |  | N#Cc1cn(CC23CC(C(=O)N4N=CCC4c4cc(F)cc(F)c4)(C2)C3)cn1 (stereo not drawn) [Example 124, 1-((3-(5-(3,5-difluorophenyl)-4,5-dihydro-1H-pyrazole-1-carbonyl)bicyclo[1.1.1]-pentan-1-yl)methyl)-1H-imidazole-4-carbonitrile] | 751 nM | 
114 nM |  | N#Cc1cn(CC23CC(C(=O)N4N=CCC4c4cc(F)cc(F)c4)(C2)C3)nn1 (stereo not drawn) [Example 163, 1-((3-(5-(3,5-difluorophenyl)-4,5-dihydro-1H-pyrazole-1-carbonyl)bicyclo[1.1.1]-pentan-1-yl)methyl)-1H-1,2,3-triazole-4-carbonitrile] | 730 nM | 
24 nM |  | N#Cc1ccc2c(cnn2CC23CC(C(=O)N4N=CCC4c4ccccc4)(C2)C3)c1 (stereo not drawn) [Example 52, 1-((3-(5-phenyl-4,5-dihydro-1H-pyrazole-1-carbonyl)-bicyclo[1.1.1]pentan-1-yl)methyl)-1H-indazole-5-carbonitrile] | 16 nM | 
33 nM |  | N#Cc1cc2cnn(CC34CC(C(=O)N5N=CCC5c5cc(F)cc(F)c5)(C3)C4)c2cn1 (stereo not drawn) [Example 213, 1-((3-(5-(3,5-difluorophenyl)-4,5-dihydro-1H-pyrazole-1-carbonyl)bicyclo[1.1.1]pentan-1-yl)methyl)-1H-pyrazolo[3,4-c]pyridine-5-carbonitrile] | 63 nM | 
70 nM |  | N#CCC12CC(C(=O)N3N=CCC3c3cc(F)cc(F)c3)(C1)C2 (stereo not drawn) [Example 18, 2-(3-(5-(3,5-Difluorophenyl)-4,5-dihydro-1H-pyrazole-1-carbonyl)-bicyclo[1.1.1]pentan-1-yl)acetonitrile] | 284 nM | 
 | more potent isomer | Cc1cc(F)c([C@@H]2CC=NN2C(=O)C23CC(COc4cnc(C#N)cn4)(C2)C3)cc1F [Example 197, (S)-5-((3-(5-(2,5-difluoro-4-methylphenyl)-4,5-dihydro-1H-pyrazole-1-carbonyl)bicyclo[1.1.1]pentan-1-yl)methoxy)pyrazine-2-carbonitrile] | 0.77 nM | 
238 nM |  | Cc1nn(CC23CC(C(=O)N4N=CCC4c4cncc(F)c4)(C2)C3)c2ccc(C#N)cc12 (stereo not drawn) [Example 130, 1-((3-(5-(5-fluoropyridin-3-yl)-4,5-dihydro-1H-pyrazole-1-carbonyl)bicyclo[1.1.1]-pentan-1-yl)methyl)-3-mcthyl-1H-indazole-5-carbonitrile] | 1240 nM | 
48 nM |  | Cc1ccc(C2CC=NN2C(=O)C23CC(Cn4ncc5cc(C#N)ccc54)(C2)C3)nc1 (stereo not drawn) [Example 174, 1-((3-(5-(5-methylpyridin-2-yl)-4,5-dihydro-1H-pyrazole-1-carbonyl)bicyclo[1.1.1]-pentan-1-yl)methyl)-1H-indazole-5-carbonitrile] | 63 nM | 
39 nM |  | N#Cc1cnn(CC23CC(C(=O)N4N=CCC4c4cc(F)cc(F)c4)(C2)C3)c1 (stereo not drawn) [Example 71, 1-((3-(5-(3,5-difluorophenyl)-4,5-dihydro-1H-pyrazole-1-carbonyl)bicyclo[1.1.1]-pentan-1-yl)methyl)-1H-pyrazole-4-carbonitrile] | 134 nM | 
18 nM |  | O=C(N1N=CCC1c1cc(F)cc(F)c1)C12CC(Cn3nc4ccc(F)cc4n3)(C1)C2 (stereo not drawn) [Example 85, (5-(3,5-difluorophenyl)-4,5-dihydro-1H-pyrazol-1-yl)(3-((5-fluoro-2H-benzo[d]-[1,2,3]triazol-2-yl)methyl)-bicyclo[1.1.1]pentan-1-yl)-methanone] | 24 nM | 
21 nM |  | O=C(N1N=CCC1c1cc(F)cc(F)c1)C12CC(COc3ncc(F)cn3)(C1)C2 (stereo not drawn) [Example 325, (5-(3,5-difluorophenyl)-4,5-dihydro-1H-pyrazol-1-yl)(3-(((5-fluoropyrimidin-2-yl)-oxy)methyl)bicyclo[1.1.1]-pentan-1-yl)methanone] | 193 nM | 
98 nM |  | Cc1c2ccccc2nn1CC12CC(C(=O)N3N=CCC3c3cc(F)cc(F)c3)(C1)C2 (stereo not drawn) [Example 152, (5-(3,5-difluorophenyl)-4,5-dihydro-1H-pyrazol-1-yl)(3-((3-methyl-2H-indazol-2-yl)-methyl)bicyclo[1.1.1]pentan-1-yl)methanone] | 363 nM | 
49 nM |  | N#Cc1cc(OCC23CC(C(=O)N4N=CCC4c4cncc(F)c4)(C2)C3)ncn1 (stereo not drawn) [Example 126, 6-((3-(5-(5-fluoropyridin-3-yl)-4,5-dihydro-1H-pyrazole-1-carbonyl)bicyclo[1.1.1]-pentan-1-yl)-methoxy)pyrimidine-4-carbonitrile] | 440 nM | 
54 nM |  | N#Cc1ccc2c(cnn2CC23CC(C(=O)N4CCC4c4ccccc4)(C2)C3)c1 (stereo not drawn) [Example 177, 1-((3-(2-phenylazetidine-1-carbonyl)bicyclo[1.1.1]-pentan-1-yl)methyl)-1H-indazole-5-carbonitrile] | 536 nM | 
11 nM |  | N#Cc1cccc(C2CC=NN2C(=O)C23CC(Cn4ncc5c(F)cccc54)(C2)C3)c1 (stereo not drawn) [Example 82, 3-(1-(3-((4-fluoro-1H-indazol-1-yl)methyl)bicyclo-[1.1.1]pentane-1-carbonyl)-4,5-dihydro-1H-pyrazol-5-yl)benzonitrile] | 31 nM | 
34 nM |  | O=C(N1N=CCC1c1cc(F)cc(F)c1)C12CC(Cn3ncc4ccc(F)cc43)(C1)C2 (stereo not drawn) [Example 70, (5-(3,5-difluorophenyl)-4,5-dihydro-1H-pyrazol-1-yl)(3-((6-fluoro-1H-indazol-1-yl)-methyl)bicyclo[1.1.1]pentan-1-yl)methanone] | 26 nM | 
18 nM |  | O=C(N1N=CCC1c1cc(F)cc(F)c1)C12CC(COc3ncc(F)cc3F)(C1)C2 (stereo not drawn) [Example 321, (5-(3,5-difluorophenyl)-4,5-dihydro-1H-pyrazol-1-yl)(3-(((3,5-difluoropyridin-2-yl)-oxy)methyl)bicyclo[1.1.1]-pentan-1-yl)methanone] | 45 nM | 
433 nM |  | COc1ccc(C(F)C23CC(C(=O)N4N=CCC4c4cc(F)cc(F)c4)(C2)C3)cc1 (stereo not drawn) [Example 228, (5-(3,5-difluorophenyl)-4,5-dihydro-1H-pyrazol-1-yl)(3-(fluoro(4-methoxyphenyl)-methyl)bicyclo[1.1.1]pentan-1-yl)methanone] | 2400 nM | 
11 nM |  | N#Cc1cnc2c(ccn2CC23CC(C(=O)N4N=CCC4c4cc(F)cc(F)c4)(C2)C3)c1 (stereo not drawn) [Example 212, 1-((3-(5-(3,5-difluorophenyl)-4,5-dihydro-1H-pyrazole-1-carbonyl)bicyclo[1.1.1]pentan-1-yl)methyl)-1H-pyrrolo[2,3-b]pyridine-5-carbonitrile] | 19 nM | 
19 nM |  | N#Cc1cccc2c1cnn2CC12CC(C(=O)N3N=CCC3c3cc(F)cc(F)c3)(C1)C2 (stereo not drawn) [Example 67, 1-((3-(5-(3,5-difluorophenyl)-4,5-dihydro-1H-pyrazole-1-carbonyl)bicyclo[1.1.1]-pentan-1-yl)methyl)-1H-indazole-4-carbonitrile] | 54 nM | 

From US20250214942A1, “INHIBITORS OF RECEPTOR INTERACTING PROTEIN KINASE I FOR THE TREATMENT OF DISEASE” (Board of Regents, The University of Texas System, priority 2019, published 2025)
